Results reported in US8361998B2, “Compounds and their use as IKACh blockers” (AstraZeneca AB, priority 2010, dated 2013).

Molecular target: T1, human cardiac ion channel proteins hKir3.1/Kir3.4 (Homo sapiens, UniProt P48544+P48549)
T1 construct: expressed in transfected cells
T1 sequence (P48549 1-501): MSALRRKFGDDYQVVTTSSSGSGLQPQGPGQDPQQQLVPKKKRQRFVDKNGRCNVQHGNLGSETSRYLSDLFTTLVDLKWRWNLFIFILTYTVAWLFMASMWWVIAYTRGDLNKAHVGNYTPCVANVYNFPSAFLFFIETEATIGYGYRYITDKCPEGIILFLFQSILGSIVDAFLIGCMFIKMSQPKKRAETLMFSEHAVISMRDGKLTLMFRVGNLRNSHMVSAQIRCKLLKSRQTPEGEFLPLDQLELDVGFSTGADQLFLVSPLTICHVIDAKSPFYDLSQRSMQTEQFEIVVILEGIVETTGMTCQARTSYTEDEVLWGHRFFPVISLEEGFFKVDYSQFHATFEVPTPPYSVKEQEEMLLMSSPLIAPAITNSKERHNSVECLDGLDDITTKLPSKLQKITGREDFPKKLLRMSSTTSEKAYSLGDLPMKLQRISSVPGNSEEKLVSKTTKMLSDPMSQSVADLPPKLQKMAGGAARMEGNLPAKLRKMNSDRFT
T1 sequence (P48544 1-419): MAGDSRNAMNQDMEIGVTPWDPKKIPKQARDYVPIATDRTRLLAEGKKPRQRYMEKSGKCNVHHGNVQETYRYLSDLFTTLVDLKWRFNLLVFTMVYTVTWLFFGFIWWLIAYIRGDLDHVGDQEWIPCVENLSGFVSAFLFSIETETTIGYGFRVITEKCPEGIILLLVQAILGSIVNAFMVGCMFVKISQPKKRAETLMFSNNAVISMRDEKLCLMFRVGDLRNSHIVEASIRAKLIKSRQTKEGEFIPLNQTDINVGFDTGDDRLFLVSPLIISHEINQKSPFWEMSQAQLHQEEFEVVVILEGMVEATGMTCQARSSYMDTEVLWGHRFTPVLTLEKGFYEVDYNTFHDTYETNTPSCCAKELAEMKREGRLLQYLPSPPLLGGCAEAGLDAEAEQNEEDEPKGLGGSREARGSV
Test: Atomic Absorption Screening (AAS) Rb efflux assay of hKir3.1/Kir3.4 block, carbachol/high K+ stimulated, 10-pt or 7-pt CR
Assay type: cell-based
Details: 7-pt CR (0.037 to 27 μmol/L), AAS Rb efflux, CHO-K1 cells expressing hKir3.1/Kir3.4; mean of >3 replicates; read-out: IKACh IC50 7-pt CR, AAS
Summary of the method: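 CHO-K1 cells stably co-expressing human Kir3.1/Kir3.4 were Rb-loaded for 3 h at 37° C, preincubated with compound 5 min at RT, then stimulated 10 min with 10 μM carbachol plus 20 mM KCl (final). Supernatant Rb was measured by atomic absorption. Compounds ran at 0.003–67 μmol/L (10-pt) or 0.037–27 μmol/L (7-pt), threefold dilutions; IC50s are means of >4 or >3 replicates respectively.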

IC50 [µM] | Compound
3.9 | CC(C)[C@@H](CN1CC[C@H](O)C1)N(C)C(=O)c1cccc(OC(F)(F)F)c1 [Example 16.42, N-[(1S)-1-{[(3S)-3-Hydroxypyrrolidin-1-yl]methyl}-2-methylpropyl]-N-methyl-3-(tri-fluoromethoxy)benzamide]
6 | CC(C)[C@@H](CN1CCCC1)N(C)C(=O)c1ccccc1OC(F)F [Example 16.54, (S)-2-(Difluoromethoxy)-N-methyl-N-(3-methyl-1-(pyrrolidin-1-yl)butan-2-yl)benzamide]
12 | CC(C)[C@@H](CN1CCCC1)N(C)C(=O)c1cc(F)c(F)c(F)c1 [Example 16.21, (S)-3,4,5-Trifluoro-N-methyl-N-(3-methyl-1-(pyrrolidin-1-yl)butan-2-yl)benzamide]
4.8 | CC(C)[C@@H](CN1CCCCC1)N(C)C(=O)c1ccc(F)cc1Cl [Example 16.26, 2-Chloro-4-fluoro-N-methyl-N-[(1S)-2-methyl-1-(piperidin-1-yl-methyl)propyl]benzamide]

Compound | IC50 [µM]
Cc1cccc(C(=O)N(C)[C@H](CN2CCCCC2)C(C)C)c1 [Example 16.29, N,3-Dimethyl-N-[(1S)-2-methyl-1-(piperidin-1-ylmethyl)propyl]benzamide] | 8.8
Cc1c(F)cccc1C(=O)N(C)[C@H](CN1CCCC1)C(C)C [Example 16.13, (S)-3-Fluoro-N,2-dimethyl-N-(3-methyl-1-(pyrrolidin-1-yl)butan-2-yl)benzamide] | 5.3
CC(C)[C@@H](CN1CCCCC1)N(C)C(=O)c1ccc(Cl)cc1Cl [Example 16.30, 2,4-Dichloro-N-methyl-N-[(1S)-2-methyl-1-(piperidin-1-ylmethyl)propyl]benzamide] | 1.7

Same assay, conditions: 10-pt CR (0.003 to 67 μmol/L), AAS Rb efflux, CHO-K1 cells expressing hKir3.1/Kir3.4; mean of >4 replicates; read-out: IKACh IC50 10-pt CR, AAS

IC50 [µM] | Compound
1.1 | CCCC[C@@H](CN1CC(O)C1)N(C)C(=O)c1cccc(C(F)F)c1 [Example 33.10, 3-(Difluoromethyl)-N-[(2S)-1-(3-hydroxyazetidin-1-yl)hexan-2-yl]-N-methylbenzamide]
3.6 | CC(C)[C@@H](CN1CC[C@@H](O)C1)N(C)C(=O)c1ccc(F)c(C(F)(F)F)c1 [Example 17.7, 4-Fluoro-N—((S)-1-((R)-3-hydroxypyrrolidin-1-yl)-3-methylbutan-2-yl)-N-methyl-3-(trifluoromethyl)benzamide]
9.1 | CC(C)[C@@H](CN1CCCC1)N(C)C(=O)c1ccccc1OC(F)F [Example 16.54, (S)-2-(Difluoromethoxy)-N-methyl-N-(3-methyl-1-(pyrrolidin-1-yl)butan-2-yl)benzamide]
1.2 | CC(C)[C@@H](CN1CCC1)N(C)C(=O)c1ccc(F)c(C(F)(F)F)c1 [Example 1.11, (S)-N-(1-(Azetidin-1-yl)-3-methylbutan-2-yl)-4-fluoro-N-methyl-3-(trifluoromethyl)benzamide]
8.4 | COC[C@@H]1CCCN1C[C@H](C(C)C)N(C)C(=O)c1ccc(Br)cc1 [Example 3.20, 4-Bromo-N-((S)-1-((S)-2-(methoxymethyl)pyrrolidin-1-yl)-3-methylbutan-2-yl)-N-methylbenzamide]
4.3 | CCCC[C@@H](CN1CC(O)C1)N(C)C(=O)c1cc(F)ccc1F [Example 33.9, 2,5-Difluoro-N-[(2S)-1-(3-hydroxyazetidin-1-yl)hexan-2-yl]-N-methylbenzamide]
0.41 | CN(C(=O)c1ccc(C#N)cc1)[C@H](CN1CC(O)C1)C1CCCCC1 [Example 36.1, 4-cyano-N-[(1S)-1-cyclohexyl-2-(3-hydroxyazetidin-1-yl)ethyl]-N-methylbenzamide]
6.7 | CC(C)[C@@H](CN1CC(F)C1)N(C)C(=O)c1ccc(Cl)cc1 [Example 1.6, (S)-4-Chloro-N-(1-(3-fluoroazetidin-1-yl)-3-methylbutan-2-yl)-N-methylbenzamide]
16 | COc1ccc(C(=O)N(C)[C@@H](CN2CC(O)C2)C2CCC2)c(F)c1 [Example 35.12, N-[(1R)-1-Cyclobutyl-2-(3-hydroxyazetidin-1-yl)ethyl]-2-fluoro-4-methoxy-N-methylbenzamide]
14 | CN(C(=O)c1ccc(C#N)cc1)[C@@H](CN1CC(O)C1)C1CCC1 [Example 35.2, 4-Cyano-N-[(1R)-1-cyclobutyl-2-(3-hydroxyazetidin-1-yl)ethyl]-N-methylbenzamide]
1.1 | CC(C)[C@@H](CN1CCC(O)CC1)N(C)C(=O)c1ccc(Cl)cc1 [Example 27, (S)-4-Chloro-N-(1-(4-hydroxypiperidin-1-yl)-3-methylbutan-2-yl)-N-methylbenzamide]
2.5 | COC1CCN(C[C@H](C(C)C)N(C)C(=O)c2ccc(C)c(C)c2)CC1 [Example 3.12, (S)-N-(1-(4-Methoxypiperidin-1-yl)-3-methylbutan-2-yl)-N,3,4-trimethylbenzamide]
0.16 | CC[C@H](C)[C@@H](CN1CC(O)C1)N(C)C(=O)c1ccc(Cl)cc1 [Example 29.2, 4-Chloro-N-((2S,3S)-1-(3-hydroxyazetidin-1-yl)-3-methylpentan-2-yl)-N-methylbenzamide]
4.3 | CCC[C@@H](CN1CC(O)C1)N(C)C(=O)c1cccc(C)c1 [Example 8.10, (S)-N-(1-(3-Hydroxyazetidin-1-yl)pentan-2-yl)-N,3-dimethyl-benzamide]
5.6 | CCN(C(=O)c1ccc(Cl)cc1)[C@H](CN1CCC1)C(C)C [Example 11, (S)—N-(1-(Azetidin-1-yl)-3-methylbutan-2-yl)-4-chloro-N-ethylbenzamide]

Compound | IC50 [µM]
Cc1cccc(C(=O)N(C)[C@H](CN2CCCCC2)C(C)C)c1 [Example 16.29, N,3-Dimethyl-N-[(1S)-2-methyl-1-(piperidin-1-ylmethyl)propyl]benzamide] | 9.3
CN(C(=O)c1ccc(F)c(Cl)c1)[C@H](CN1CCCC1)C1CC1 [Example 13.1, (S)-3-Chloro-N-(1-cyclopropyl-2-(pyrrolidin-1-yl)ethyl)-4-fluoro-N-methylbenzamide] | 2.5
Cc1ccc(C(=O)N(C)[C@H](CN2CCCC2)C2CC2)cc1C [Example 13.2, (S)-N-(1-Cyclopropyl-2-(pyrrolidin-1-yl)ethyl)-N,3,4-trimethyl-benzamide] | 3.9
Cc1ccc(C(=O)N(C)[C@H](CN2CCC2)C2CC2)cc1C [Example 9.10, N-[(1S)-2-(azetidin-1-yl)-1-cyclopropylethyl]-N,3,4-trimethylbenzamide] | 2.1
CO[C@H](C)[C@@H](CN1CCCC1)N(C)C(=O)c1ccc(F)c(Cl)c1 [Example 3.3, 3-Chloro-4-fluoro-N-((2R,3R)-3-methoxy-1-(pyrrolidin-1-yl)butan-2-yl)-N-methylbenzamide] | 7.2
CO[C@H](C)[C@@H](CN1CCCC1)N(C)C(=O)c1ccc(Br)cc1 [Example 3.4, 4-Bromo-N-((2R,3R)-3-methoxy-1-(pyrrolidin-1-yl)butan-2-yl)-N-methylbenzamide] | 2.2
CCC[C@@H](CN1CC[C@H](O)C1)N(C)C(=O)c1ccc(Cl)cc1 [Example 46.2, 4-Chloro-N—((S)-1-((S)-3-hydroxypyrrolidin-1-yl)pentan-2-yl)-N-methylbenzamide] | 5.5
Cc1c(F)cccc1C(=O)N(C)[C@H](CN1CCCC1)C(C)C [Example 16.13, (S)-3-Fluoro-N,2-dimethyl-N-(3-methyl-1-(pyrrolidin-1-yl)butan-2-yl)benzamide] | 14
CN(C(=O)c1ccc(F)c(F)c1)[C@H](CN1CC(O)C1)C1CCCC1 (single isomer, unassigned) [32.1, isomer 2] | 2.3
CCC[C@@H](CN1CCC1)N(C)C(=O)c1ccc(Br)cc1 [Example 1.3, (S)-N-(1-(Azetidin-1-yl)pentan-2-yl)-4-bromo-N-methylbenzamide] | 3.1

Same assay, conditions: printed as IC50 >67 μM in the 10-pt CR assay or IC50 >27 μM in the 7-pt CR assay; assay format per compound not stated; read-out: IC50

IC50 [µM] | Compound
> 27 | CC(C)[C@@H](CN1CCCC1)N(C)C(=O)c1ccc(F)cc1 [4-Fluoro-N-methyl-N-[(1S)-2-methyl-1-(pyrrolidin-1-ylmethyl)propyl]benzamide]
> 27 | CC(C)[C@@H](CN1CC[C@H](O)C1)N(C)C(=O)c1cc(F)cc(F)c1F [2,3,5-Trifluoro-N-[(1S)-1-{[(3S)-3-hydroxypyrrolidin-1-yl]methyl}-2-methylpropyl]-N-methylbenzamide]
> 27 | CN(C(=O)c1ccc(C#N)cc1)[C@H](CN1CCC1)C1CC1 [N-[(1S)-2-(Azetidin-1-yl)-1-cyclopropyl-ethyl]-4-cyano-N-methyl-benzamide]

Compound | IC50 [µM]
CC(C)[C@@H](CN1CCCC1)N(C)C(=O)c1ccccc1 [N-Methyl-N-[(1S)-2-methyl-1-(pyrrolidin-1-ylmethyl)propyl]benzamide] | > 27
CC(C)[C@H](CN1CCCC1)N(C)C(=O)c1ccccc1OC(F)(F)F [N-Methyl-N-[(1R)-2-methyl-1-(pyrrolidin-1-ylmethyl)propyl]-2-(trifluoromethoxy)benzamide] | > 27
